Key:
isolate of CHL004 = assay: Use as phosphate source for growth; assay type: cell-based, Pseudomonas aeruginosa
Excerpt: In Wanner (16), it is noted that organophosphates can be directly transported to the cytoplasm of E. coli and S. typhimurium, or they can be hydrolyzed in the periplasm by phosphatases, after which the phosphate is transported to the cytoplasm.

P. aeruginosa CHL004 = assay: Growth in medium with Pb(NO3)2; assay type: cell-based, Pseudomonas aeruginosa; conditions: Pb(NO3)2 increased from zero to 1 mM in BPTN
Description: All cultures were grown at 29° C. in a water bath incubator with shaking at a speed of 200 rpm. The cultures were inoculated with a saturated overnight culture in BPTN. Overnight cultures (˜18 hours) were prepared from −80° C. freezer stocks. Data were typically obtained after approximately three or more doublings, and only data between an optical density at 650 nm (OD650) of 0.1 and half the saturation cell density were used for analysis.
Growth rate and saturation cell density studies. The OD650 was measured using a Perkin Elmer Lambda 2 UV/VIS spectrometer. The cell path length was 10 mm. Duplicate 100 μL aliquots were taken from growing cultures and diluted with 900 microliters of a solution having a minimum concentration of 62 mM NaNO3. The same diluent was used within a given growth rate curve. Sixty two mM NaNO3 was determined to be isosmotic with BPTN. Osmolalities were determined using a Precision Instruments microOsmette freezing point depression osmometer calibrated at 0, 100, and 500 mOsm.
Growth in medium with Pb(NO3)2. […] The variances from the growth rate curve fittings for BPTN+1 mM Pb(NO3) 2 are typically equal to or smaller than those for BPTN. […] A linear relationship between CFU/mL and OD650 is expected if the extent of scattering is proportional to the cell density in the cell slurry. […]

[1] = Solubility of Pb(NO3)2 in BPTN, ICAP trace metal analysis before and after 0.2 micrometer filtering; assay type: physicochemical; conditions: n=4

| Structure (SMILES) | use as a phosphate source (isolate of CHL004) | change of growth rate constant of CHL004 with Pb(NO3)2 concentration (P. aeruginosa CHL004) | Pb^2+ concentration after filtering ([1]; 0.2 micrometer PES syringe filter) | Pb^2+ concentration before filtering [1] |
| --- | --- | --- | --- | --- |
| N[C@@H](COP(=O)(O)O)C(=O)O [O-Phospho-L-serine] | can be used as a phosphate source |  |  |  |
| O=[N+]([O-])[O-].O=[N+]([O-])[O-].[Pb+2] [Pb(NO3)2] |  | decreases | 25.1 ± 1.3 mM | 24.0 ± 0.6 mM |

Reference: patent publication US6489157B1, “Medium for cultivating microorganisms” (priority 1999, dated 2002)
